According to patent publication US12390470B2, “1-methylxanthine-based bioactive composition and method of use thereof” (Ingenious Ingredients, LP, priority 2021, dated 2025):

Legend:
[1] = tested on: participants; assay: Diastolic blood pressure, crossover vs caffeine; assay type: in vivo, human
Procedure: All supplements were orally ingested with 8 fluid ounces of cold tap water. Resting Heart Rate, Systolic and Diastolic Blood Pressure was measured at baseline, 30, 60, 90, 120 and 180 minutes after ingestion.

[2] = tested on: Brain-derived neurotrophic factor (BDNF); assay: BDNF level in young and old rats; assay type: in vivo
Procedure: (§1) Twenty-four young (6-8 Week) and twenty-four old (14-16 Months) Swiss Albino Wistar rats were housed in an animal room at a constant temperature (22±3° C.) and humidity (30%-70%) under a 12:12 h light-dark cycle with standard laboratory diet (Purina 5L79, Rat and Mouse 18% protein; PMI Nutrition International, Brentwood, MO, USA). Distilled water was provided ad libitum. All animal experiments were reviewed and approved by the Institutional Animal Ethical Committee (IAEC) of Radiant Research Services Pvt. Ltd (Bangalore, India). All research was conducted in accordance with the guidelines of the committee for the purpose of control and supervision of experiments on animals.
After one week of acclimation, the animals were randomly divided by body weight and age into six groups (n=8 per group in each test) for oral treatment once a day, at approximately same time each day (±1 hour), for 10 consecutive days: (1) vehicle control or (2) 1-methylxanthine or (3) 1-methylxanthine plus paraxanthine. The dose administered to the rat was calculated using US Food and Drug Administration for human equivalence doses (HED), assuming a human weight of 60 kg. […] Food intake was monitored daily while water intake was ad libitum. […] Body weight was recorded weekly. […]

[3] = tested on: healthy adult male; assay: Subject report during work out; assay type: in vivo, human; details: 200 mg prior to work out
Procedure: Subject was a healthy adult. Subject was administered 200 mg of 1-methylxanthine prior to work out.
During another trial subject was administered 100 mg of 1-methylxanthine together with 100 mg of paraxanthine, prior to work out.

[4] = tested on: male Swiss Albino mice; assay: Passive shock avoidance test, scopolamine-induced amnesia; assay type: in vivo
Procedure: Behavioral studies were conducted in mice to examine the learning and memory ability by using Cook's pole and Passive shock avoidance test.
as §1, with “8-week-old male” for “young (6-8 Week) and twenty-four old (14-16 Months)”, “mice” for “Wistar rats”
After one week of acclimation, the animals were randomly divided by body weight into three groups (n=8 per group in each test) for oral treatment once a day, at approximately same time each day (±1 hour), for 7 consecutive days: (1) vehicle control or (2) 1-methylxanthine or (3) 1-methylxanthine plus paraxanthine. The dose administered to the mice was calculated using US Food and Drug Administration for human equivalence doses (HED), assuming a human weight of 60 kg. […] Food intake was monitored daily while water intake was ad libitum. […]

Cn1c(=O)[nH]c2nc[nH]c2c1=O [1-methylxanthine, 1-Methyl-3H-purine-2,6-dione]
diastolic blood pressure reduced in comparison to CA ([1]; 200 mg oral): 12%
Diastolic Blood Pressure MEAN (30-180) ([1]; Average): 70.6 mm Hg
Diastolic Blood Pressure Mean Δ from 0 ([1]; Average): −1.4 mm Hg
Diastolic Blood Pressure MEAN (30-180) ([1]; Person one): 71.6 mm Hg
Diastolic Blood Pressure Mean Δ from 0 ([1]; Person one): −0.4 mm Hg
Diastolic Blood Pressure Δ vs. CA ([1]; Person one): −5.0 mm Hg
Diastolic Blood Pressure ([1]; Person one, 30 min): 71 mm Hg
Diastolic Blood Pressure ([1]; Person one, 60 min): 68 mm Hg
Diastolic Blood Pressure ([1]; Person one, 90 min): 69 mm Hg
Diastolic Blood Pressure ([1]; Person one, 120 min): 71 mm Hg
Diastolic Blood Pressure ([1]; Person one, 180 min): 79 mm Hg
Diastolic Blood Pressure ([1]; Person one, time 0, 200 mg oral): 72 mm Hg
Diastolic Blood Pressure MEAN (30-180) ([1]; Person two): 69.6 mm Hg
Diastolic Blood Pressure Mean Δ from 0 ([1]; Person two): −2.4 mm Hg
Diastolic Blood Pressure Δ vs. CA ([1]; Person two): −12.2 mm Hg
Diastolic Blood Pressure ([1]; Person two, 30 min): 79 mm Hg
Diastolic Blood Pressure ([1]; Person two, 60 min): 62 mm Hg
Diastolic Blood Pressure ([1]; Person two, 90 min): 70 mm Hg
Diastolic Blood Pressure ([1]; Person two, 120 min): 72 mm Hg
Diastolic Blood Pressure ([1]; Person two, 180 min): 65 mm Hg
Diastolic Blood Pressure ([1]; Person two, time 0, 200 mg oral): 72 mm Hg
BDNF levels ([2]; old rats): 793.81 ± 33.85 pg/mL
BDNF levels ([2]; young rats): 869.04 ± 32.79 pg/mL
subject-reported effect during work out [3]: increased focus, concentration, mood and performance
Transfer latency, passive shock avoidance test ([4]; mice, oral 7 days, scopolamine): 24.25 ± 2.60 s
Transfer latency faster than control ([4]; mouse, in vivo): 9.3%
